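Values below derive from 48-hour exposures of cells grown in 96-well plates, with endpoints linearly interpolated between the two concentrations bracketing the appropriate inhibition level. Abbreviation: GI50, concentration required for 50% inhibition of growth. The concentration for full growth arrest is given as TGI.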
Legend:
Assay in all cases: NCI tumour cell line growth inhibition, 48 h
OVCAR-3 ovarian = tested on: OVCAR-3 ovarian
SK-MEL-2 melanoma = tested on: SK-MEL-2 melanoma
LOX IMVI melanoma = tested on: LOX IMVI melanoma
SR leukemia = tested on: SR leukemia
HCT-116 colon = tested on: HCT-116 colon
A549 NSCLC = tested on: A549 NSCLC
OVCAR-5 ovarian = tested on: OVCAR-5 ovarian
SF-268 CNS = tested on: SF-268 CNS
CAKI-1 renal = tested on: CAKI-1 renal
SNB-19 CNS = tested on: SNB-19 CNS

Row | SMILES | GI50 (OVCAR-3 ovarian) [µM] | TGI (OVCAR-3 ovarian) [µM] | GI50 (SK-MEL-2 melanoma) [µM] | TGI (SK-MEL-2 melanoma) [µM] | GI50 (LOX IMVI melanoma) [µM] | TGI (LOX IMVI melanoma) [µM] | GI50 (SR leukemia) [µM] | TGI (SR leukemia) [µM] | GI50 (HCT-116 colon) [µM] | TGI (HCT-116 colon) [µM] | GI50 (A549 NSCLC) [µM] | TGI (A549 NSCLC) [µM] | GI50 (OVCAR-5 ovarian) [µM] | TGI (OVCAR-5 ovarian) [µM] | GI50 (SF-268 CNS) [µM] | TGI (SF-268 CNS) [µM] | GI50 (CAKI-1 renal) [µM] | TGI (CAKI-1 renal) [µM] | GI50 (SNB-19 CNS) [µM] | TGI (SNB-19 CNS) [µM]
1 | CCCCCCn1c2c(c3c(O)cccc31)C(=O)c1ccccc1-2 | 20.6 | 43 | 18.9 | 37.9 | 18.1 | 33.8 | 26 | > 100 | 17.2 | 30.9 | 16.4 | 34.5 | 18.6 | 32.8 | 20.3 | 40.5 | 26.9 | 63.8 | 39.4 | > 100
2 | O=C1CCCCCCCCCCOC(=O)CCCCCCCCCCO1 | – | > 100 | – | > 100 | – | > 100 | – | > 100 | – | > 100 | – | > 100 | – | > 100 | – | > 100 | – | > 100 | – | > 100
3 | COC1/C=C/OC2(C)Oc3c(C)c(O)c4c(O)c(c(C=NOC(c5ccccc5)c5ccccc5)c(O)c4c3C2=O)NC(=O)/C(C)=C/C=C/C(C)C(O)C(C)C(O)C(C)C(OC(C)=O)C1C (stereo not given) | 1 | 2.01 | 1.05 | 2.54 | 0.913 | 1.82 | 1.94 | 5.93 | 0.97 | 1.86 | 1.58 | 6.05 | 0.984 | 2.49 | 2.25 | 8.23 | 1.77 | 7.15 | 1.89 | 6.87
4 | Clc1ccc(Nc2ncnc3c2sc2ncccc23)c(Cl)c1 | 1 | > 100 | 30.7 | > 100 | 0.0214 | > 100 | < 0.0187 | > 100 | < 0.01 | > 100 | < 0.01 | > 100 | 0.0576 | > 100 | 0.0246 | > 100 | < 0.0107 | > 33.9 | < 0.0121 | > 100
5 | C/C(CC(=O)Nc1cccc(C)c1C)=N\NC(N)=S | – | > 100 | – | > 100 | – | > 100 | – | 56.5 | – | > 100 | – | > 100 | – | > 100 | – | > 100 | – | > 100 | – | > 100
6 | COc1cc(-c2ccc(=O)oc2C#Cc2ccccc2)cc(OC)c1OC | 36.4 | > 100 | 23.2 | > 100 | 1.57 | > 100 | 2.4 | > 100 | 1.66 | > 100 | 3.22 | 91.1 | > 100 | > 100 | 12.7 | > 100 | 27.4 | > 100 | 29.9 | 93.3
7 | C=C(C)C1CCC2(C(=O)O)CCC3(C)C(CCC4C5(C)CCC(O)C(C)(C)C5CCC43C)C12 (stereo not given) | – | 7.98 | – | 32.2 | – | 52.8 | – | 27.6 | – | 17.5 | – | 24.1 | – | 26.1 | – | 28.7 | – | 27.4 | – | 39.7
8 | O=C(Nc1nc(-c2ccccc2Cl)cs1)c1cc(-c2ccc(Cl)cc2)nc2ccc(Cl)cc12 | 2.64 | 13.1 | 7.81 | > 100 | 0.457 | 20.8 | 3.15 | > 100 | 0.395 | 13.2 | 39.2 | > 100 | 23.1 | > 100 | 2.37 | 32.9 | 19.6 | > 100 | 3.79 | 67.2
